Results as given in PubChem BioAssay (NCI).
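Growth conditions: 96-well plates. Treatment: test compound, 48 hours, 5 concentrations. Analysis: linear interpolation between bracketing concentrations; unreached endpoints set to highest concentration. GI50 is the concentration that inhibits growth by half. TGI is the concentration that stops growth completely.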

What was measured:
Assay in all cases: DTP human tumour cell line panel, 48 h
[1] = tested on: HCT-116 colon
[2] = tested on: PC-3 prostate
[3] = tested on: UACC-62 melanoma
[4] = tested on: IGROV1 ovarian
[5] = tested on: SN12C renal
[6] = tested on: DU-145 prostate
[7] = tested on: HOP-62 NSCLC
[8] = tested on: RPMI-8226 leukemia
[9] = tested on: SW-620 colon
[10] = tested on: MDA-MB-231 breast
[11] = tested on: A549 NSCLC
[12] = tested on: LOX IMVI melanoma
[13] = tested on: TK-10 renal
[14] = tested on: OVCAR-3 ovarian
[15] = tested on: SK-MEL-5 melanoma
[16] = tested on: HOP-92 NSCLC
[17] = tested on: NCI/ADR-RES ovarian
[18] = tested on: UO-31 renal
[19] = tested on: HCC-2998 colon
[20] = tested on: HCT-15 colon
[21] = tested on: CAKI-1 renal
[22] = tested on: CCRF-CEM leukemia
[23] = tested on: KM12 colon
[24] = tested on: SF-539 CNS
[25] = tested on: U251 CNS
[26] = tested on: A498 renal
[27] = tested on: NCI-H226 lung
[28] = tested on: HL-60(TB) leukemia
[29] = tested on: OVCAR-5 ovarian
[30] = tested on: K-562 leukemia
[31] = tested on: ACHN renal
[32] = tested on: OVCAR-4 ovarian
[33] = tested on: SF-268 CNS
[34] = tested on: M14 melanoma
[35] = tested on: MCF7 breast
[36] = tested on: HT29 colon
[37] = tested on: NCI-H460 lung
[38] = tested on: NCI-H23 lung
[39] = tested on: SNB-75 CNS
[40] = tested on: EKVX NSCLC
[41] = tested on: 786-0 renal
[42] = tested on: MOLT-4 leukemia
[43] = tested on: T-47D breast
[44] = tested on: HS 578T breast
[45] = tested on: RXF 393 renal
[46] = tested on: COLO 205 colon
[47] = tested on: UACC-257 melanoma
[48] = tested on: MDA-MB-435
[49] = tested on: SK-MEL-2 melanoma
[50] = tested on: SK-OV-3 ovarian
[51] = tested on: SK-MEL-28 melanoma
[52] = tested on: OVCAR-8 ovarian
[53] = tested on: NCI-H522 lung
[54] = tested on: SF-295 CNS
[55] = tested on: BT-549 breast
[56] = tested on: SNB-19 CNS
[57] = tested on: MALME-3M melanoma
[58] = tested on: SR leukemia

## CC(=O)Nc1cccc(C#Cc2cncnc2Nc2ccc(OCc3cccc(F)c3)c(Cl)c2)n1
[1]
  GI50: 11.6 µM
  TGI: > 25 µM
[2]
  GI50: 9.4 µM
  TGI: > 25 µM
[3]
  GI50: 24.4 µM
  TGI: > 25 µM
[4]
  GI50: 4.2 µM
  TGI: > 25 µM
[5]
  GI50: > 25 µM
  TGI: > 25 µM
[6]
  GI50: 8.62 µM
  TGI: > 25 µM
[7]
  GI50: 10.3 µM
  TGI: > 25 µM
[8]
  GI50: > 25 µM
  TGI: > 25 µM
[9]
  GI50: 23.1 µM
  TGI: > 25 µM
[10]
  GI50: 6.04 µM
  TGI: > 25 µM
[11]
  GI50: 6.81 µM
  TGI: > 25 µM
[12]
  GI50: > 18.5 µM
  TGI: > 25 µM
[13]
  GI50: 0.412 µM
  TGI: > 17.6 µM
[14]
  GI50: > 21.6 µM
  TGI: > 25 µM
[15]
  GI50: > 18.8 µM
  TGI: > 25 µM
[16]
  GI50: 3.61 µM
  TGI: 18.2 µM
[17]
  GI50: 20.7 µM
  TGI: > 25 µM
[18]
  GI50: 22.5 µM
  TGI: > 25 µM
[19]
  GI50: > 25 µM
  TGI: > 25 µM
[20]
  GI50: > 25 µM
  TGI: > 25 µM
[21]
  GI50: 2.28 µM
  TGI: > 25 µM
[22]
  GI50: > 25 µM
  TGI: > 25 µM
[23]
  GI50: > 25 µM
  TGI: > 25 µM
[24]
  GI50: > 23.3 µM
  TGI: > 25 µM
[25]
  GI50: 7.14 µM
  TGI: > 23.4 µM
[26]
  GI50: 1.22 µM
  TGI: > 25 µM
[27]
  GI50: > 17.8 µM
  TGI: > 25 µM
[28]
  GI50: > 25 µM
  TGI: > 25 µM
[29]
  GI50: > 23.4 µM
  TGI: > 25 µM
[30]
  GI50: > 25 µM
  TGI: > 25 µM
[31]
  GI50: 2.87 µM
  TGI: > 25 µM
[32]
  GI50: > 22.7 µM
  TGI: > 25 µM
[33]
  GI50: > 18.8 µM
  TGI: > 25 µM
[34]
  GI50: 16.1 µM
  TGI: > 25 µM
[35]
  GI50: > 25 µM
  TGI: > 25 µM
[36]
  GI50: 17.6 µM
  TGI: > 25 µM
[37]
  GI50: 11.9 µM
  TGI: > 25 µM
[38]
  GI50: > 25 µM
  TGI: > 25 µM
[39]
  GI50: 11.9 µM
  TGI: > 25 µM
[40]
  GI50: 0.475 µM
  TGI: > 25 µM
[41]
  GI50: > 22.5 µM
  TGI: > 25 µM
[42]
  GI50: > 25 µM
  TGI: > 25 µM
[43]
  GI50: 2.57 µM
  TGI: > 25 µM
[44]
  GI50: 24.9 µM
  TGI: > 25 µM
[45]
  GI50: 20.8 µM
  TGI: > 25 µM
[46]
  GI50: > 22.2 µM
  TGI: > 25 µM
[47]
  GI50: > 21.5 µM
  TGI: > 25 µM
[48]
  GI50: > 20.4 µM
  TGI: > 25 µM
[49]
  GI50: 10.4 µM
  TGI: > 25 µM
[50]
  GI50: 1.06 µM
  TGI: > 25 µM
[51]
  GI50: 14.8 µM
  TGI: > 25 µM
[52]
  GI50: 15.4 µM
  TGI: > 25 µM
[53]
  GI50: 8.25 µM
  TGI: > 25 µM
[54]
  GI50: 13.7 µM
  TGI: > 25 µM
[55]
  GI50: > 25 µM
  TGI: > 25 µM
[56]
  GI50: > 21.7 µM
  TGI: > 25 µM
[57]
  GI50: 9.55 µM
  TGI: > 25 µM
[58]
  GI50: > 25 µM
  TGI: > 25 µM
